This is an account of results in patent US4303637A, “Medication indicated for ocular hypertension” (priority 1980, dated 1981).

The test system of data set [1] is intraocular pressure associated with glaucoma. Conditions: liquid eyedrops; cited from earlier work.
Data set [2] can be described thus: Solubility in distilled water. In kind it is physicochemical. Conditions: distilled water at 25° C. An excerpt: (§1) The product is removed from the internal mixer and passed through the cooled rolls of a 3×8 inch roller mill to form a 0.8 mm thick film, with portions of the film compression molded between heated plattens of a hydraulic press to form 0.4 mm thick film. The film is cooled, and elliptical ocular shaped devices are punched from the dry film.

A short description of data set [3]: Osmotic pressure of the solute (vapor pressure osmometer). Type of data set: physicochemical.
From the text: The osmotic pressure, ATM, of the solute can be measured in a commercially available osmometer that measures the vapor pressure difference between pure water and a solution containing a solute to be analyzed, and according to standard thermodynamic principles, the vapor pressure ratio is converted into an osmotic pressure. An osmometer that can be used for the present measurements is the Model 302B, Vapor Pressure Osmometer, manufactured by the Hewlett Packark Company, Avondale, Pennsylvania.
as §1

SMILES strings stand for the structures.

Consider `CC(C)(C)NC[C@H](O)COc1nsnc1N1CCOCC1` [timolol], for which the “lowering of intraocular pressure” value in data set [1] is recorded as “lowering intraocular pressure associated with glaucoma”.

`COCCc1ccc(OCC(O)CNC(C)C)cc1.O=C(O)C(O)C(O)C(=O)O` (racemic) [(±)-1-[4-(2-methoxyethyl)-phenoxy]-3-[(1-methylethyl)amino]-2-propanol tartrate]: the solubility in data set [2] worked out at 860 mg/mL. The same molecule returned an osmotic pressure in data set [3] of 210 atm.
